From patent publication US20240358692A1, “TREATMENT OF SCLERODERMA” (Aisa Pharma, Inc., priority 2023, published 2024)

Tests used:
participants with SSc-RP [1] = experiment: Frequency of weekly RP attacks (all attacks; primary endpoint), patient diary; type: in vivo, human; conditions: ITT Part A
Source text: Percent change from baseline evaluation for frequency of weekly RP attacks were or will be used as the primary efficacy variable. The sponsor-developed participant-informed diary will be used to record data. Frequency of weekly RP attacks is defined as the total number of RP attacks divided by the number of days with available diary data within the last 7 days of each dosing period then multiplied by 7. Total number of RP attacks during the last 7 days of screening period divided by the number of days with available data then multiplied by 7 will be used as baseline for the analysis of all periods. The variable will be calculated as follows: […]
Percent change from baseline evaluation for frequency of weekly RP attacks was and will be the primary efficacy endpoint. Frequency of weekly RP attacks is defined as the total number of RP attacks divided by the number of days with available diary data within the last 7 days of each dosing period then multiplied by 7. Total number of RP attacks during the last 7 days of screening period divided by the number of days with available data then multiplied by 7 will be used as baseline for the analysis of all periods.

participants with SSc-RP [2] = experiment: Average duration of weekly RP attacks (minutes), patient diary; type: in vivo, human; conditions: Tadalafil 5 mg
Source text: The absolute change in average duration of weekly RP attacks from baseline to the end of each dosing period was and will be a secondary outcome variable. The sponsor-developed participant-informed diary was and will be used to record data. Average duration of weekly RP attacks is defined as the total duration of RP attacks divided by total number of RP attacks within the last 7 days of each dosing period. Total duration of RP attacks during the last 7 days of screening period divided by the total number of RP attacks will be used as baseline for the analysis of all periods. The variable will be calculated similar to frequency data as before.

[3] = Tadalafil 5 mg, Baseline RCS stratum 2 (lower half of table)
[4] = tadalafil 5 mg daily, n=1, excluding outliers, last 7 days of dosing
[5] = tadalafil 5 mg daily, n=2, last 7 days of dosing
[6] = Excluding Outliers, ITT Population - Part A, last 7 days of dosing period
[7] = by Baseline RCS, second RCS subgroup of table (not named), ITT Population - Part A
[8] = excluding outliers, 2nd baseline RCS subgroup, ITT Part A
[9] = last 7 days of dosing period, ITT Part A

CN1CC(=O)N2[C@H](c3ccc4c(c3)OCO4)c3[nH]c4ccccc4c3C[C@@H]2C1=O [Tadalafil]
Weekly RP Attacks (All Attacks) Change from Baseline, Mean (participants with SSc-RP [1]; [3]): 3.00 | Weekly RP Attacks (All Attacks) Change from Baseline, Median (participants with SSc-RP [1]; [3]): 3.00 | Weekly RP Attacks (All Attacks), Mean (participants with SSc-RP [1]; [3]): 13.00 | Weekly RP Attacks (All Attacks), Median (participants with SSc-RP [1]; [3]): 13.00 | Weekly RP Attacks (All Attacks) Change from Baseline, Mean (participants with SSc-RP [1]; [4]): 6.00 | Weekly RP Attacks (All Attacks) Change from Baseline, Median (participants with SSc-RP [1]; [4]): 6.00 | Weekly RP Attacks (All Attacks), Mean (participants with SSc-RP [1]; [4]): 19.00 | Weekly RP Attacks (All Attacks), Median (participants with SSc-RP [1]; [4]): 19.00 | Weekly RP Attacks (All Attacks) Change from Baseline, Mean (participants with SSc-RP [1]; [5]): 3.00 | Weekly RP Attacks (All Attacks) Change from Baseline, Median (participants with SSc-RP [1]; [5]): 3.00 | Weekly RP Attacks (All Attacks), Mean (participants with SSc-RP [1]; [5]): 13.00 | Weekly RP Attacks (All Attacks), Median (participants with SSc-RP [1]; [5]): 13.00 | Average Duration of Weekly RP Attacks (All Attacks), Mean (participants with SSc-RP [2]; [6]): 5.95 min | Average Duration of Weekly RP Attacks (All Attacks), Median (participants with SSc-RP [2]; [6]): 5.95 min | Change from Baseline in average duration of weekly symptomatic RP attacks, Mean (participants with SSc-RP [2]; [7]): 140.74 min | Change from Baseline in average duration of weekly symptomatic RP attacks, Median (participants with SSc-RP [2]; [7]): 140.74 min | Percent Change from Baseline in average duration of weekly symptomatic RP attacks, Mean (participants with SSc-RP [2]; [7]): 5.21% | Percent Change from Baseline in average duration of weekly symptomatic RP attacks, Median (participants with SSc-RP [2]; [7]): 5.21% | Average duration of weekly RP attacks, Change from Baseline, Mean (participants with SSc-RP [2]; [8]): -4.98 min | Average duration of weekly RP attacks, Change from Baseline, Median (participants with SSc-RP [2]; [8]): -4.98 min | Average duration of weekly RP attacks, Percent Change from Baseline, Mean (participants with SSc-RP [2]; [8]): −45.55% | Average duration of weekly RP attacks, Percent Change from Baseline, Median (participants with SSc-RP [2]; [8]): −45.55% | Average Duration of weekly symptomatic RP attacks, Mean (participants with SSc-RP [2]; [9]): 412.29 min | Average Duration of weekly symptomatic RP attacks, Median (participants with SSc-RP [2]; [9]): 412.29 min
